Results reported in patent US20190037899A1, “Intramolecular Trans-Sialidase” (THE INSTITUTE OF FOOD RESEARCH, priority 2016, published 2019).
Marks after values point to notes of the source that are not given here.

Legend:
RgNanH [1] = test: Specificity of RgNanH against sialylated oligosaccharides (HPAEC-PAD); type: biochemical, Ruminococcus gnavus ATCC 29149; parameters: key to Activity, RgNanH: +: Activity was defined as disappearance of the substrate peak and appearance of a lower molecular weight peak which could correspond to the desialylated substrate; settings: for Activity, RgNanH: 1 mM substrate, 1 nM enzyme, 37° C., pH 6.5, overnight
[2] = tested on: AkmNan0625 and AkmNan1835; test: Specificity of AkmNan0625 and AkmNan1835 against sialylated oligosaccharides (HPAEC-PAD); type: biochemical, Akkermansia muciniphila; parameters: key to Activity, AkmNan0625 and AkmNan1835: +: Activity was defined as disappearance of the substrate peak and appearance of a lower molecular weight peak which could correspond to the desialylated substrate; settings: for Activity, AkmNan0625 and AkmNan1835: 1 mM substrate, 1 nM enzyme, 37° C., pH 6.5, overnight
Text: All chemicals were obtained from Sigma (St. Louis, US) unless otherwise stated. The Akkermansia muciniphila sialidases, termed here AkmNan0625 and AkmNan1835, were obtained by His-Tag overexpression of their genes (Amuc_0625 and Amuc_1835, respectively (van Passel, M. W. et al. The genome of Akkermansia muciniphila, a dedicated intestinal mucin degrader, and its use in exploring intestinal metagenomes. Plos One 6, e16876 (2011)) in E. coli BL21(DE3) and subsequent purification to homogeneity by immobilised metal affinity chromatography (IMAC) as described below. The sialylated oligosaccharides and OC were obtained from Carbosynth (Berks, UK).

RgNanH [3] = test: Kinetic analysis of RgNanH with sialylated substrates; settings: 37° C., pH 6.5
Protocol: For 4MU-Neu5Ac and 3′SL, the rate of hydrolysis without enzyme was not significant so raw data were used. However, for pNP-Neu5Ac the rate of hydrolysis without enzyme was significant so the rate with enzyme was corrected by the subtraction of the rate without enzyme at each concentration of substrate.
Kinetic data were obtained from at least duplicate (usually triplicate) experiments, and the kinetic parameters were calculated by fitting the initial raw data to the Michaelis-Menten equation using a non-linear regression analysis program (Prism 6, GraphPad, San Diego, USA), error bars (standard error of the mean) are shown.

Molecule | Activity, RgNanH (RgNanH [1]) | Activity, AkmNan0625 and AkmNan1835 [2] | also measured
CC(=O)N[C@H]1[C@H]([C@H](O)[C@H](O)CO)O[C@@](O[C@H]2[C@@H](O)[C@@H](CO)O[C@@H](O[C@H]3[C@H](O[C@@H]4O[C@@H](C)[C@@H](O)[C@@H](O)[C@@H]4O)[C@@H](O)C(O)O[C@@H]3CO)[C@@H]2O)(C(=O)O)C[C@@H]1O (stereo partly drawn) [3′ sialyl-3-fucosyllactose, Neu5Ac-α-2-3-Gal-β1-4-[Fuc-α-1-3]-Glc] | + | + | –
CC(=O)NC1C(O)CC(OC2C(O)C(O)OC(CO)C2O)(C(=O)O)OC1C(O)C(O)CO (stereo not drawn) [3′ sialylgalactose, Neu5Ac-α-2-3-Gal] | + | + | –
Neu5Ac-α-2-6-Gal-β-1-4-GlcNAc [6′-α-sialyl-N-acetyllactosamine] | – | + | –
CC(=O)N[C@H]1[C@H]([C@H](O)[C@H](O)CO)O[C@@](O[C@H]2[C@@H](O)[C@@H](CO)O[C@@H](O[C@H]3[C@H](O[C@@H]4O[C@@H](C)[C@@H](O)[C@@H](O)[C@@H]4O)[C@@H](NC(C)=O)C(O)O[C@@H]3CO)[C@@H]2O)(C(=O)O)C[C@@H]1O (stereo partly drawn) [3′-sialyl Lewis X, Neu5Ac-α-2-3-Gal-β-1-4-[Fuc-a1-3]-GlcNAc] | + | + | –
Neu5Ac-α-2-6-Gal-β1-4-Glc [6′SL] | – | + | Enzymatic activity of RgNanH on substrate (in words) (RgNanH [1]): no enzymatic activity; Activity of AkmNan0625 and AkmNan1835 on substrate (in words) [2]: active
CC(=O)N[C@H]1[C@H]([C@H](O)[C@H](O)CO)OC(OC[C@H]2OC(O)[C@H](O)[C@@H](O)[C@H]2O)(C(=O)O)C[C@@H]1O (stereo partly drawn) [6′ sialylgalactose, Neu5Ac-α-2-6-Gal] | – | + | –
CO[C@@H]1O[C@H](CO)[C@@H](O[C@@H]2O[C@H](CO)[C@H](O)[C@H](O[C@]3(C(=O)O)C[C@H](O)[C@@H](NC(C)=O)[C@H]([C@H](O)[C@H](O)CO)O3)[C@H]2O)[C@H](O[C@@H]2O[C@@H](C)[C@@H](O)[C@@H](O)[C@@H]2O)[C@H]1NC(C)=O [3′ sialyl Lewis X methyl glycoside, Neu5Ac-α-2-3-Gal-β-1-4-[Fuc-a-1-3]-GlcNAc-β-OMe] | + | + | –
CC(=O)N[C@H]1[C@H]([C@H](O)[C@H](O)CO)O[C@@](Oc2ccc3c(C)cc(=O)oc3c2)(C(=O)O)C[C@@H]1O [4MU-Neu5Ac, 2′-(4-Methylumbelliferyl)-α-D-N-acetylneuraminic acid] | – | – | Km (RgNanH [3]): 590 µM; kcat (RgNanH [3]): 6210 min⁻¹; Ki (RgNanH [3]; read-out: Ki (substrate inhibition)): 2370 µM
CC(=O)NC1C(O)CC(Oc2ccc([N+](=O)[O-])cc2)(C(=O)O)OC1C(O)C(O)CO [PNP-Neu5Ac, 2-O-(p-Nitrophenyl)-α-D-N-acetylneuraminic acid] | – | – | KM (RgNanH [3]): high; Km (RgNanH [3]): > 25000 µM; kcat (RgNanH [3]): <152** min^−1
Neu5Ac-α-2-3-Gal-β-1-4-GlcNAc [3′-α-sialyl-N-acetyllactosamine] | + | + | –
